From US8846768B2, “Use of compounds isolated from Euphorbia neriifolia for treating cancer and/or thrombocytopenia” (Mackay Memorial Hospital, priority 2012, dated 2014)

Key:
[1] = system: human esophageal squamous 81T/VGH cells; assay: MTT cell viability, growth inhibition on esophageal squamous cells; assay type: cell-based; conditions: for Inhibition (%): 81T/VGH cells; for ex vivo growth of esophageal cancerous cells inhibited: time not stated
Experimental: (§1) Cell lines used in the present disclosure include human chronic is myelogenous leukemia (CML) cell line K562, erythroleukemia HEL cells, human pancreatic carcinoma epithelial-like cell line PANC-1, human esophageal squamous cell carcinoma line 81T/VGH, human esophageal adenocarcinoma line BE-3 and human esophageal adenocarcinoma cell line SKGT4. Each cell lines were cultured and maintained in Dulbecco's modified Eagle media (DMEM) supplemented with 10% fetal calf serum, 100 IU/ml penicillin, 100 μg/ml streptomycin, and 2 mM glutamine in 5% CO2 at 37° C.
(§2) The absorbance of the solution at 570 nm was measured by spectrophotometer.
Effects of the compounds of formula (I) of this disclosure, particularly, EN 22, EN 24, and EN 25, on 81T/VGH cells were assessed by cell viability analysis in accordance with procedures described above.

[2] = system: human esophageal squamous 81T/VGH xenograft tumor; assay: Tumor size in animals grafted with 81T/VGH cancer cells; assay type: in vivo, Athymic BALB/c-nu nude mice; conditions: FIG. 1
Experimental: For inoculated tumor model, 1×10^5 81T/VGH cells were injected subcutaneously to lab animals to generate s.c. tumors (5×10^5 cells per injection) on day 1. The needle hole was sealed with an electric coagulator (Aaron, Petersburg, Fla., USA) immediately after the withdrawal of the needle to avoid leakage of the injected substance. The incision was subsequently sutured.
Results are depicted in FIGS. 1 to 3, respectively.

[3] = system: human chronic myelogenous leukemia (CML) K562 cells; assay: MTT cell viability, growth inhibition on chronic myelogenous leukemia cells; assay type: cell-based; conditions: for Inhibition (%): 10 μM, K562 cells; for ex vivo growth of CML cells suppressed: about 10 μM, time not stated
Experimental: as §1, §2
Effects of the compounds of formula (I) or (II) of this disclosure, particularly, EN 22, EN 26, and EN 28, on K562 cells were assessed by cell viability analysis in accordance with procedures described above.

[4] = Body weight of tumor-bearing treated animals; conditions: EN 22 alone, FIG. 2
Experimental: (§7) Athymic BALB/c-nu nude mice (4 weeks old) were obtained from the National Laboratory Animal Center (Taipei, Taiwan) and were kept in a pathogen-free facility with ad libitum access to water and laboratory chow. A solution of 81T/VGH cells was injected into the subcutaneous tissue to establish a xenograft tumor.
Tumor sizes were measured using calipers, and tumor volume was calculated using the formula: volume=width^2×length×0.52.
(§8) Mice were inoculated with esophageal squamous tumor cells in accordance with the procedures described above. For in vivo therapy, animals were given 2 mg/Kg cisplatin intraperitoneally, in the presence or absence of 20 mg/Kg EN 22, which was given orally, for a period of at least 4 weeks. Tumor size, body weight, white blood cell count, and liver function of each animal were then measured respectively at the indicated time.

[5] = White blood cell counts, liver or kidney function of treated animals; conditions: EN 22 25 or 50 mg/Kg, FIG. 3
Experimental: as §7
After treatment, mice were sacrificed and their white blood cells (WBC) counts were measured. Tumor burdens were determined by the total volume of all the tumor nodules with diameter greater than 3 mm.
as §8

[6] = system: human erythroleukemia (HEL) cells; assay: In vitro growth inhibition of HEL cells; assay type: cell-based
Experimental: as §1, §2

K562 cells = assay: Megakaryocyte formation, morphology by Liu's staining, K562; assay type: cell-based, human; conditions: 10 μM, 9 days, FIG. 6
Experimental: (§3) Cells were transferred to a glass coverslide and covered with solution A (0.5 g of methylene blue and 1.7 g of Eosin yellow dissolved in 1,000 ml of ethanol). After 45 seconds, solution B (1.3 g of azure, 1.4 g of methylene blue, 23.38 g of Na2HPO4, 6.5 g of KH2PO4, dissolved in 1,000 ml of distilled water) was added in the proportion of 2 parts of B to 1 part of A. Mixed the solutions well by blowing the surface. The slide was left standing for 90 seconds and then washed off the staining solution rapidly by running water. The morphology of stained cells was then examined by observation under microscope.
(§4) Megarkaryocytopoiesis is a process by which bone marrow progenitor cells develop into mature megakaryocytes, which in turn produce platelets required for normal hemostasis.

HEL cells [7] = assay: Megakaryocyte formation, morphology by Liu's staining, HEL; assay type: cell-based, human; conditions: 10 μM, 5 days, FIG. 7
Experimental: as §3, §4

HEL cells [8] = assay: Cell cycle analysis by flow cytometry; assay type: cell-based, human; conditions: FIG. 8
Experimental: Cultured cells with or without pre-treatment of the compounds of this invention (i.e., the compound of formula (I) or (II)) were harvested from the cultured media and fixed by incuating with 75% iced cold ethanol at 4° C. for at least over night. The fixed cells were then warmed up to room temperature and treated with RNAase A for about 30 min. Precipitated cells were collected by centrifugation and re-suspended in a buffer solution containing propidium iodine (20 μg/ml) before being subject to flow cytometry analysis, where cell numbers at respective cell cycles were determined.

[9] = system: stat3 and phosphorylated stat3; assay: Immunoblot of stat3 and phosphorylated stat3 in K562 cells; assay type: cell-based, human; conditions: compared with control, FIG. 9
Experimental: (§5) Cultured cells were lysed by use of well known lysing buffer, and total amount of proteins were determined by Bradford method. The extracted raw proteins (about 50-100 μg) were loaded to […] sodium dodecyl sulfate polyacrylamide gel, and proteins therein were separated by electrophoresis. The separated proteins were then transferred to nitrocellulose membrane and non-specific binding was removed by TBST buffer (0.8% NaCl, 0.02% KCl, 25 mM Tris-HCl/pH 8.0 and 0.1% Tween-20) containing 4% skim milk. Antibodies including p-Jak2, Jak2, p-stat3-2, stat3, p-stat5, stat5, and GAPDH (purchased from Transduction Laboratories, Lexington, Ky., USA), were respectively dissolved in TBST buffer containing 2% skim milk and incubated with the separated protein bands at 4° C. for at least over night; followed by incubation with horseradish conjugated secondary antibodies at room temperature for about 30 min, and then detected by ECL chemiluminesance detection kit (Amersham Pharmacia Biotech, US).
(§6) The induction of K562 cells or HEL cells to form megakaryocytes was further investigated by measuring the expressed level of its regulatory proteins such as, stat3 and phosphorylated stat3.

[10] = system: stat3 and phosphorylated stat3; assay: Immunoblot of stat3 and phosphorylated stat3 in HEL cells; assay type: cell-based, human; conditions: compared with control, FIG. 9
Experimental: as §5, §6

HEL cells [11] = assay: STAT3 RNAi assay, megakaryocytic differentiation after Stat3 knockdown; assay type: cell-based, human; conditions: Stat3 small interference RNA, FIG. 10
Excerpt: The murine stat3 target sequence from positions 134 to 158 (5′-TGGCCCAATGGAATCAGCTACAGCA-3′ (SEQ ID NO: 1)) was selected for the preparation of stat3 siRNA (5′-UGGCCCAAUGGAAUCAGCUACAGCA-3′ (SEQ ID NO: 2)). Scrambled RNAs were employed as a negative control and were synthesized by PCR-derived siRNA expression cassettes according to the manufacturer's instructions and were then cloned into pSEC™ hygro plasmid (Ambion).
[…] HEL cells were transfected with the plasmids (i.e., plasmids containing the nucleic acid for the stat3 siRNA or scramble RNAs) described above with the aid of the lipofectamine 2000 (Invitrogen, Carisbad, Calif. USA). Specifically, 5 μg pSEC™ hygro plasmid contained murine stat3 siNAs and 9 μl lipofectamine 2000 were allowed to form complexes in a period of 25 min at room temperature in antibiotic-free DMEM medium. The complexes were then added to HEL cells maintained and cultured in 6-well dishes and further incubated for another 24 hrs. For the selection of cells with high expression rate of siRNA, stable clones of murine stat3 siRNA expressed cells and negative control siRNA (i.e., scrambled RNA) were selected by use of 500 μg/ml hygromycin contained medium, and the selected clones were maintained in 250 ? μg/ml hygromycin contained medium. […]

[12] = system: CD61 and CD235a in HEL cells; assay: Flow cytometric analysis of CD61 and CD235a expression; assay type: cell-based, human; conditions: 5 μM
Excerpt: The induction of megakaryocytic differentiation may also be confirmed by the measurement of the differentiation markers CD61 and CD235a expressed on the erythrocyte membrane during the differentiation stage.

normal bone marrow cells = assay: Induction and proliferation of megakaryocytes from normal bone marrow cells; assay type: cell-based; conditions: 1.25 μM, FIG. 12

SMILES: CC1C(O)CCC2C1(C)CCC1C2(C)CCC2(C)C3CC(C)(C)CCC3(C)CCC12C (stereo not drawn) [EN 22, 3β-Friedelinol]
- Inhibition (%) ([1]; 1 μM, 24 hrs): 51.98%
- Inhibition (%) ([1]; 1 μM, 48 hrs): 41.42%
- Inhibition (%) ([1]; 10 μM, 24 hrs): 58.03%
- Inhibition (%) ([1]; 10 μM, 48 hrs): 58.61%
- ex vivo growth of esophageal cancerous cells inhibited ([1]; about 1 μM): about 50%
- ex vivo growth of esophageal cancerous cells inhibited ([1]; about 10 μM): about 60%
- tumor size (growth of tumor) ([2]; EN 22 orally, 20 and 50 mg/Kg): able to suppress the growth of the tumor in a dose dependent manner
- Inhibition (%) ([3]; 48 hrs): 39.32%
- Inhibition (%) ([3]; 72 hrs): 45.38%
- ex vivo growth of CML cells suppressed [3]: about 45%
- body weight loss [4]: free from the “weight lost” problem
- white blood cell (WBC) counts [5]: did not affect the number of WBC

SMILES: CC1(C)CC[C@]2(C)CC=C3[C@]4(C)CC[C@H]5C(C)(C)[C@@H](O)CC[C@]5(C)[C@H]4CC[C@@]3(C)[C@@H]2C1 [EN 24, 3β-Taraxerol]
- Inhibition (%) ([1]; 1 μM, 24 hrs): 49.15%
- Inhibition (%) ([1]; 1 μM, 48 hrs): 43.47%
- Inhibition (%) ([1]; 10 μM, 24 hrs): 63.99%
- Inhibition (%) ([1]; 10 μM, 48 hrs): 57.10%

SMILES: CC1C(O)CCC2C1(C)CCC1C2(C)CCC2(C)C3CC(C)(C)CCC3(C)CCC12C (stereo not drawn) [EN 25, 3α-Friedelinol]
- Inhibition (%) ([1]; 1 μM, 24 hrs): 49.45%
- Inhibition (%) ([1]; 1 μM, 48 hrs): 39.99%
- Inhibition (%) ([1]; 10 μM, 24 hrs): 61.74%
- Inhibition (%) ([1]; 10 μM, 48 hrs): 62.55%
- ex vivo growth of esophageal cancerous cells inhibited ([1]; about 1 μM): about 50%
- ex vivo growth of esophageal cancerous cells inhibited ([1]; about 10 μM): about 60%

SMILES: CC=C(C)C(=O)OC1C(OC(C)=O)C(C)=CC23OC2(CC(C)C3OC(C)=O)C(=O)C(C)C(OC(C)=O)C2C1C2(C)C (centres unmarked) [EN 26, 3,7,12-O-Triacetyl-8-O-tigioylingol]
- Inhibition (%) ([3]; 24 hrs): 12.74%
- Inhibition (%) ([3]; 48 hrs): 30.38%
- Inhibition (%) ([3]; 72 hrs): 42.35%
- ex vivo growth of CML cells suppressed [3]: about 40%

SMILES: CC=C(C)C(=O)OC1C(C)=CC23OC2(CC(C)C3OC(C)=O)C(=O)C(C)C(OC(C)=O)C2C(C1OC)C2(C)C (centres unmarked) [EN 28, 3,12-O-Diacetyl-7-O-angeloyl-8-methoxyingol]
- Inhibition (%) ([3]; 48 hrs): 44.85%
- ex vivo growth of CML cells suppressed [3]: about 50%
- in vitro growth of HEL cells inhibited ([6]; 5 μM): about 55%
- in vitro growth of HEL cells inhibited ([6]; 10 μM): about 60%
- in vitro growth of HEL cells inhibited ([6]; about 2.5 μM): about 40%
- morphology change, formation of megakaryocytes (K562 cells): cells started to fuse and form megakaryocytes
- morphology change, differentiation into megakaryocytes (HEL cells [7]): induces the differentiation of HEL cells into megakaryocytes
- cell cycle analysis (HEL cells [8]): capable of inducing the generation of new population of cells
- level of phosphorylated stat-3 [9]: increased
- level of stat3 [9]: increased
- level of phosphorylated stat-3 [10]: increased
- level of stat3 [10]: increased
- induction of megakaryocytic differentiation after knockdown of Stat3 (HEL cells [11]): partially reversed
- effect of Stat3 knockdown on CD61 and CD235a changes ([12]; HEL cells with siStat3, FIG. 11): not antagonized
- CD61 expression ([12]; HEL cells, FIG. 11): up-regulation
- CD235a expression ([12]; HEL cells, FIG. 11): down-regulation
- proliferation and differentiation into megakaryocytes (normal bone marrow cells): capable of inducing the proliferation and subsequently, the differentiation of the proliferated normal bone marrow cells into megakaryocytes

SMILES: N.N.[Cl][Pt][Cl] [cisplatin, reference compound]
- tumor size (growth of tumor) ([2]; cisplatin 2 mg/Kg intraperitoneally): capable of suppressing the growth of tumor during the entire treatment period
